The target in the assay is T1, BRM (Homo sapiens, UniProt P51531).
T1 construct: Western Blot Screen of BRM Degradation in SW1573 Cells; endogenous in cells; host or cells: SW1573 cells
The assay can be described thus: BRM degradation (Dmax and DC50) in SW1573 cells, Western blot screen / In-Cell Western screen. In kind it is cell-based. The note with it: overnight (18-20 hours) treatment; for Dmax: read-out: Dmax (%)** (% degraded). As for the experimental part:
To assess BRM degradation (Dmax and DC50) cells were seeded at 8000/well in 96-well black/clear-bottom plates in 180 μL DMEM growth media (containing 1% pen-strep, 1% HEPES and 10% FBS) per well. Plates were incubated overnight to allow adhesion. The next morning cells were treated by adding 20 μL of 10× target compound concentration (1% DMSO) to appropriate wells and returned to incubator for overnight (18-20 hours). The final DMSO concentration was 0.1%.
For lysing, adherent cells were washed once with 100 μL of DPBS. Cells were lysed in 40 μL of 1×RIPA+HALT protease inhibitor on ice for 10 minutes and frozen until use at −80° C. Thawed lysates were cleaned by filtration in 1.2 µm filter plates, or alternatively, were spun clean at 2300 g at 4° C. for 30 minutes.
For blotting, for each Western sample 30 μL of lysate was added to 10 μL of 4× LDS sample buffer, then denatured at 95° C. for 5 minutes in the thermal cycler and placed on ice. Samples were loaded on 4-15% Tris/Glycine gels and run for 25 minutes at 250 constant volts in 1× Tris/Glycine buffer with 4 μL of ladder and 12 μL of each sample loaded for each blot. Protein was transferred from gels to NC with BioRad Turbo dry-transfer unit with the Turbo/midi default program. All blots were rinsed with ddH2O and blocked for 1 hour at room temperature in 5% BSA in TBST (0.1%) on rocker. Blots were exposed to primary antibody in 5% BSA in TBST (0.1%) overnight at 4° C. on rocker (1:1000 for BRM (Cell Signaling Tech. cat #11966) and 1:2000 for alpha-tubulin (Cell Signaling Tech. cat #3873), a control protein. Blot was washed with TBST (0.1%) three times for 5 minutes on rocker at room temperature. Secondary antibody was added, and blots were incubated on a room temperature rocker for 1 hour with 1:18,000 anti-rabbit-HRP and/or anti-mouse-HRP in 5% BSA in TBST (0.1%). Blots were washed three times in TBST (0.1%) for 5 minutes at room temperature on the rocker. Signal was developed with Femto Maximum Sensitivity substrate for 4 minutes and blots read on ChemiDoc™.
To assess BRM degradation (Dmax and DC50), cells were seeded at 8000/well in 96-well black/clear-bottom plates in 180 μL DMEM growth media (containing 1% pen-strep, 1% HEPES and 10% FBS) per well. Plates were incubated overnight to allow adhesion. The next morning cells were treated by adding 20 μL of 10× compound (1% DMSO) to appropriate wells and returned to incubator for overnight (18-20 hours). The final DMSO concentration was 0.1%.
For processing, the plates were removed from incubator, the media was removed, and immediately 200 μL of cold (4° C.) DPBS was added to all wells. DPBS was then removed, and 50 μL of 4% paraformaldehyde (PFA) in DPBS (4° C.) was added to all wells, and the plates were incubated at room temperature for 20 minutes. PFA was then removed, and 200 μL of TBS-T containing 0.5% Triton X-100 was added to all wells, and the plates were incubated at room temperature for 30 minutes. TBS-T containing 0.5% Triton X-100 was then removed, and 50 μL of Li-Cor blocking solution was added, and the plates were incubated at room temperature for a minimum of one hour. The blocking solution was removed, and 50 μL of Li-Cor blocking solution containing primary antibody cocktail was added (1:1000 for BRM (Cell Signaling Tech. cat #11966) and 1:2000 for alpha-tubulin (Sigma cat #T6074), a control protein. Plates were then placed in cold room until the next day.
The next day plates were washed three times with TBS-T, 200 μL per well. Fifty […] of secondary antibody cocktail in LI-COR blocking solution (anti-rabbit_800 nm and anti-mouse_680 nm) was added to all wells (diluted 1:5000). The plates were incubated at room temperature for at least one hour while protected from light. The plates were washed twice with TBS-T, 200 μL per well.
To read each plate TBS-T was removed, and each plate was inverted tapped on a paper towel. […]
In general terms: Immunoblotting shows a protein as a band on a membrane.

Broadly, the DC50 is the concentration giving 50% degradation. Low values mean a more potent degrader, high ones a less potent degrader. As usually defined, the Dmax is the largest share of the target that was removed.

T1 sequence (P51531 whole entry): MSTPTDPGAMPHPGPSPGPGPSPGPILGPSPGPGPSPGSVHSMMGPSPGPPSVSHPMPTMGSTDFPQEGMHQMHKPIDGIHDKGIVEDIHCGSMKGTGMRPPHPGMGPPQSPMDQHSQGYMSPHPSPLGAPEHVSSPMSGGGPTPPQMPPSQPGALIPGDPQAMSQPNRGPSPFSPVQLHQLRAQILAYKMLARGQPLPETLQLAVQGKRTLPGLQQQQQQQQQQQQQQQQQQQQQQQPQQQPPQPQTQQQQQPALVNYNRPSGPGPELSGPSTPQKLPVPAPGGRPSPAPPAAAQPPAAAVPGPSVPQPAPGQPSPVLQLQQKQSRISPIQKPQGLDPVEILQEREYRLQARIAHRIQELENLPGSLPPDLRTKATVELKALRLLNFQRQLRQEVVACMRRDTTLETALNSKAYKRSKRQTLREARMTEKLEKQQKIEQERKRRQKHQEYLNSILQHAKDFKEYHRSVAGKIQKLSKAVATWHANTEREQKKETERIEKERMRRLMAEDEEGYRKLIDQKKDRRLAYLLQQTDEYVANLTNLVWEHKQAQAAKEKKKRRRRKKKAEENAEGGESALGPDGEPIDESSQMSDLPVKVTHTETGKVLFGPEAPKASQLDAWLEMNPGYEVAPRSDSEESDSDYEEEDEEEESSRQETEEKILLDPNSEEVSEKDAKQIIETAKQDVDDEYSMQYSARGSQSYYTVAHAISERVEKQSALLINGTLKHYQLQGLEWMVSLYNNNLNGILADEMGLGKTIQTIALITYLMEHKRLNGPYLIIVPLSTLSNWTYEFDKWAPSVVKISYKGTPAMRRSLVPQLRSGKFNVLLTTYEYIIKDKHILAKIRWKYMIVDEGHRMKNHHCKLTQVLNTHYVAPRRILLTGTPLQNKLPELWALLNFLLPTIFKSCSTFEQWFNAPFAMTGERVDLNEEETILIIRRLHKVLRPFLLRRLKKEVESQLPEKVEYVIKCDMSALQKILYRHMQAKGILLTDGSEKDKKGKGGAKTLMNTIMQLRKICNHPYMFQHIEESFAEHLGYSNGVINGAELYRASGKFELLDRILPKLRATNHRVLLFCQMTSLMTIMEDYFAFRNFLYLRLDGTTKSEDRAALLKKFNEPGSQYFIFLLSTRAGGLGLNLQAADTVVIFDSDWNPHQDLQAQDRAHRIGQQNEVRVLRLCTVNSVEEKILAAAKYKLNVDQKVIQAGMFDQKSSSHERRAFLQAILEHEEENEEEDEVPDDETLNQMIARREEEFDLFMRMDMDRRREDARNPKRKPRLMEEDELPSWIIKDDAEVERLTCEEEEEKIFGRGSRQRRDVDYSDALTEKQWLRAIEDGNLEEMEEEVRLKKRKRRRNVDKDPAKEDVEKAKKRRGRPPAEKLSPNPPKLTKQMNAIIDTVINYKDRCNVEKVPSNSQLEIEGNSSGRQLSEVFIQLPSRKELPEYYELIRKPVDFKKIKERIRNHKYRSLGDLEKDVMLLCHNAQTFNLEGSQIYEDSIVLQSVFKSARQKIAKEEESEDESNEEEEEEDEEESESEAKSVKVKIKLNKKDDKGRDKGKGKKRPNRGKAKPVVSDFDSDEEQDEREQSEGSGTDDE

Take `Cc1ncsc1-c1ccc([C@H](C)NC(=O)[C@@H]2C[C@@H](O)CN2C(=O)[C@@H](c2cc(N3CCC(CN4CC[C@@H](OC(=O)N5CCN(c6cc(-c7ccccc7O)nnc6N)CC5)[C@H](F)C4)CC3)no2)C(C)C)cc1` [Compound 102, (3R,4R)-3-fluoro-1-[(1-{5-[(2R)-1-[(2S,4R)-4-hydroxy-2-{[(1S)-1-[4-(4-methyl-1,3-thiazol-5-yl)phenyl]ethyl]carbamoyl}pyrrolidin-1-yl]-3-methyl-1-oxobutan-2-yl]-1,2-oxazol-3-yl}piperidin-4-yl)methyl]piperidin-4-yl 4-[3-amino-6-(2-hydroxyphenyl)pyridazin-4-yl]piperazine-1-carboxylate]: the half-maximal degradation concentration (DC50) is 2.5 to 10 nM and the Dmax was above 75%.

In the case of `Cc1ncsc1-c1ccc([C@H](C)NC(=O)[C@@H]2C[C@@H](O)CN2C(=O)[C@@H](c2cc(N3CCC(CN4CCC5(CC4)CC(N4CCOC6(CC(CN7C8CCC7CN(c7cc(-c9ccccc9O)nnc7N)C8)C6)C4)C5)CC3)no2)C(C)C)cc1` [Compound 126, (2S,4R)-1-[(2R)-2-{3-[4-({2-[2-({3-[3-amino-6-(2-hydroxyphenyl)pyridazin-4-yl]-3,8-diazabicyclo[3.2.1]octan-8-yl}methyl)-5-oxa-8-azaspiro[3.5]nonan-8-yl]-7-azaspiro[3.5]nonan-7-yl}methyl)piperidin-1-yl]-1,2-oxazol-5-yl}-3-methylbutanoyl]-4-hydroxy-N-[(1S)-1-[4-(4-methyl-1,3-thiazol-5-yl)phenyl]ethyl]pyrrolidine-2-carboxamide], the DC50 is 2.5 to 10 nM and the maximal degradation (Dmax) is above 75%.

For the compound `CC(C)C(C(=O)N1C[C@H](O)C[C@H]1C(=O)N[C@@H](C)c1ccc(-c2ccnn2C)cc1)c1cc(OCC#Cc2ncc(O[C@H]3C[C@H](Oc4cc(N5CCN(c6cc(-c7ccccc7O)nnc6N)CC5)ccn4)C3)cn2)no1` (stereo partly drawn) [Compound 34, (2S,4R)-4-hydroxy-N-[(1S)-1-[4-(1-methyl-1H-pyrazol-5-yl)phenyl]ethyl]-1-(3-methyl-2-{3-[(3-{5-[(1r,3r)-3-[(4-{4-[3-amino-6-(2-hydroxyphenyl)pyridazin-4-yl]piperazin-1-yl}pyridin-2-yl)oxy]cyclobutoxy]pyrimidin-2-yl}prop-2-yn-1-yl)oxy]-1,2-oxazol-5-yl}butanoyl)pyrrolidine-2-carboxamide], the DC50 was below 2.5 nM and the maximal degradation (Dmax) is above 75%.

On to `Cc1ncsc1-c1ccc([C@H](C)NC(=O)[C@@H]2C[C@@H](O)CN2C(=O)[C@@H](c2cc(N3CCC(CN4CC[C@H](OC(=O)N5CCN(c6cc(-c7ccccc7O)nnc6N)CC5)[C@H](F)C4)CC3)no2)C(C)C)cc1` [Compound 103, (3R,4S)-3-fluoro-1-[(1-{5-[(2R)-1-[(2S,4R)-4-hydroxy-2-{[(1S)-1-[4-(4-methyl-1,3-thiazol-5-yl)phenyl]ethyl]carbamoyl}pyrrolidin-1-yl]-3-methyl-1-oxobutan-2-yl]-1,2-oxazol-3-yl}piperidin-4-yl)methyl]piperidin-4-yl 4-[3-amino-6-(2-hydroxyphenyl)pyridazin-4-yl]piperazine-1-carboxylate], for which the DC50 was below 2.5 nM and the Dmax is above 75%.

As to `CC(C)[C@@H](C(=O)N1C[C@H](O)C[C@H]1C(=O)N[C@@H](C)c1ccc(C#N)cc1)c1cc(N2CCC(OCCN3CCC(Oc4cc(N5C6CCC5CN(c5cc(-c7ccccc7O)nnc5N)C6)ccn4)CC3)CC2)no1` [Compound 151, (2S,4R)-1-[(2R)-2-{3-[4-(2-{4-[(4-{3-[3-amino-6-(2-hydroxyphenyl)pyridazin-4-yl]-3,8-diazabicyclo[3.2.1]octan-8-yl}pyridin-2-yl)oxy]piperidin-1-yl}ethoxy)piperidin-1-yl]-1,2-oxazol-5-yl}-3-methylbutanoyl]-N-[(1S)-1-(4-cyanophenyl)ethyl]-4-hydroxypyrrolidine-2-carboxamide], the half-maximal degradation concentration (DC50) is 2.5 to 10 nM and the Dmax was above 75%.

Regarding `Cc1ncsc1-c1ccc([C@H](C)NC(=O)[C@@H]2C[C@@H](O)CN2C(=O)[C@@H](c2cc(N3CCC(CN4CC[C@H](Oc5cc(N6C7CCC6CN(c6cc(-c8ccccc8O)nnc6N)C7)ccn5)[C@@H](F)C4)CC3)no2)C(C)C)cc1` [Compound 60, (2S,4R)-1-[(2R)-2-[3-(4-{[(3S,4S)-4-[(4-{3-[3-amino-6-(2-hydroxyphenyl)pyridazin-4-yl]-3,8-diazabicyclo[3.2.1]octan-8-yl}pyridin-2-yl)oxy]-3-fluoropiperidin-1-yl]methyl}piperidin-1-yl)-1,2-oxazol-5-yl]-3-methylbutanoyl]-4-hydroxy-N-[(1S)-1-[4-(4-methyl-1,3-thiazol-5-yl)phenyl]ethyl]pyrrolidine-2-carboxamide], the DC50 was below 2.5 nM and the Dmax is above 75%.

In the case of `Cc1ncsc1-c1ccc([C@H](C)NC(=O)[C@@H]2C[C@@H](O)CN2C(=O)[C@@H](c2cc(N3CCC(CN4CCC(N5CCC6(CC5)CC(Oc5cc(N7C8CCC7CN(c7cc(-c9ccccc9O)nnc7N)C8)ccn5)C6)CC4)CC3)no2)C(C)C)cc1` [Compound 43, (2S,4R)-1-[(2R)-2-(3-{4-[(4-{2-[(4-{3-[3-amino-6-(2-hydroxyphenyl)pyridazin-4-yl]-3,8-diazabicyclo[3.2.1]octan-8-yl}pyridin-2-yl)oxy]-7-azaspiro[3.5]nonan-7-yl}piperidin-1-yl)methyl]piperidin-1-yl}-1,2-oxazol-5-yl)-3-methylbutanoyl]-4-hydroxy-N-[(1S)-1-[4-(4-methyl-1,3-thiazol-5-yl)phenyl]ethyl]pyrrolidine-2-carboxamide], the DC50 was below 2.5 nM and the Dmax was above 75%.

On to `CC(C)[C@@H](C(=O)N1C[C@H](O)C[C@H]1C(=O)N[C@@H](C)c1ccc(-c2ccnn2C)cc1)c1cc(N2CCC(CN3CCC4(CC3)CC(N3CCO[C@@H](CN5C6CCC5CN(c5cc(-c7ccccc7O)nnc5N)C6)C3)C4)CC2)no1` [Compound 106, (2S,4R)-1-[(2R)-2-{3-[4-({2-[(2R)-2-({3-[3-amino-6-(2-hydroxyphenyl)pyridazin-4-yl]-3,8-diazabicyclo[3.2.1]octan-8-yl}methyl)morpholin-4-yl]-7-azaspiro[3.5]nonan-7-yl}methyl)piperidin-1-yl]-1,2-oxazol-5-yl}-3-methylbutanoyl]-4-hydroxy-N-[(1S)-1-[4-(1-methyl-1H-pyrazol-5-yl)phenyl]ethyl]pyrrolidine-2-carboxamide], for which the DC50 is below 2.5 nM and the maximal degradation (Dmax) was above 75%.

Turning to `CC(C)[C@@H](C(=O)N1C[C@H](O)C[C@H]1C(=O)N[C@@H](C)c1ccc(C#N)cc1)c1cc(OCCN2CCN(CCOc3cc(N4C5CCC4CN(c4cc(-c6ccccc6O)nnc4N)C5)ccn3)CC2)no1` [Compound 66, (2S,4R)-1-[(2R)-2-{3-[2-(4-{2-[(4-{3-[3-amino-6-(2-hydroxyphenyl)pyridazin-4-yl]-3,8-diazabicyclo[3.2.1]octan-8-yl}pyridin-2-yl)oxy]ethyl}piperazin-1-yl)ethoxy]-1,2-oxazol-5-yl}-3-methylbutanoyl]-N-[(1S)-1-(4-cyanophenyl)ethyl]-4-hydroxypyrrolidine-2-carboxamide], the DC50 is 2.5 to 10 nM and the Dmax is above 75%.
